Experimental data published in PMC3914206.

How the values were obtained:
Type in all cases: binding
Conditions in all cases: Compound Concentration 10 µM
panel of 442 kinases [1] = target: T1, panel of 442 kinases (Homo sapiens, UniProt Q15375)
T1 construct: purchased KINOMEscan
Description: (§1) We assessed the selectivity of members of this scaffold using the KINOMEscan methodology across a near comprehensive panel of 442 kinases [[18,27]].

panel of 442 kinases [2] = target: T2, panel of 442 kinases (Homo sapiens, UniProt P41743)
T2 construct: purchased KINOMEscan
T2 sequence (P41743 1-596): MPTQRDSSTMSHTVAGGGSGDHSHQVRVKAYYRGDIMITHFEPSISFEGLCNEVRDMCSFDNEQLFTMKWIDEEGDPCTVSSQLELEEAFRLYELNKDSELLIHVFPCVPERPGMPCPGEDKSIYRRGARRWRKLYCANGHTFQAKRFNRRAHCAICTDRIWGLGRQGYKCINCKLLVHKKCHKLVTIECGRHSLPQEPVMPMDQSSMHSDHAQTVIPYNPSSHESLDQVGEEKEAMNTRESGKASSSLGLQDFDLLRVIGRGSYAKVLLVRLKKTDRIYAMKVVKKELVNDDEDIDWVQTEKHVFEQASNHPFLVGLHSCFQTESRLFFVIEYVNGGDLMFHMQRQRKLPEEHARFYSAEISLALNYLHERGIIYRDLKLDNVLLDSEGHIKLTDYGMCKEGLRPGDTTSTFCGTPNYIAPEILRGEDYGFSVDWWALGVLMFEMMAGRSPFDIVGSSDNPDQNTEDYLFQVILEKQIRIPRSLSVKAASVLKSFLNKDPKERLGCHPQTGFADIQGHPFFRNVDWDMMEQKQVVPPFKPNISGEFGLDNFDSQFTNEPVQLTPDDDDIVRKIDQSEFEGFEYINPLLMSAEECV
Description: as §1

panel of 442 kinases [3] = target: T3, panel of 442 kinases (Homo sapiens, UniProt P24941)
T3 construct: purchased KINOMEscan
Description: as §1

T1 sequence (Q15375 28-998): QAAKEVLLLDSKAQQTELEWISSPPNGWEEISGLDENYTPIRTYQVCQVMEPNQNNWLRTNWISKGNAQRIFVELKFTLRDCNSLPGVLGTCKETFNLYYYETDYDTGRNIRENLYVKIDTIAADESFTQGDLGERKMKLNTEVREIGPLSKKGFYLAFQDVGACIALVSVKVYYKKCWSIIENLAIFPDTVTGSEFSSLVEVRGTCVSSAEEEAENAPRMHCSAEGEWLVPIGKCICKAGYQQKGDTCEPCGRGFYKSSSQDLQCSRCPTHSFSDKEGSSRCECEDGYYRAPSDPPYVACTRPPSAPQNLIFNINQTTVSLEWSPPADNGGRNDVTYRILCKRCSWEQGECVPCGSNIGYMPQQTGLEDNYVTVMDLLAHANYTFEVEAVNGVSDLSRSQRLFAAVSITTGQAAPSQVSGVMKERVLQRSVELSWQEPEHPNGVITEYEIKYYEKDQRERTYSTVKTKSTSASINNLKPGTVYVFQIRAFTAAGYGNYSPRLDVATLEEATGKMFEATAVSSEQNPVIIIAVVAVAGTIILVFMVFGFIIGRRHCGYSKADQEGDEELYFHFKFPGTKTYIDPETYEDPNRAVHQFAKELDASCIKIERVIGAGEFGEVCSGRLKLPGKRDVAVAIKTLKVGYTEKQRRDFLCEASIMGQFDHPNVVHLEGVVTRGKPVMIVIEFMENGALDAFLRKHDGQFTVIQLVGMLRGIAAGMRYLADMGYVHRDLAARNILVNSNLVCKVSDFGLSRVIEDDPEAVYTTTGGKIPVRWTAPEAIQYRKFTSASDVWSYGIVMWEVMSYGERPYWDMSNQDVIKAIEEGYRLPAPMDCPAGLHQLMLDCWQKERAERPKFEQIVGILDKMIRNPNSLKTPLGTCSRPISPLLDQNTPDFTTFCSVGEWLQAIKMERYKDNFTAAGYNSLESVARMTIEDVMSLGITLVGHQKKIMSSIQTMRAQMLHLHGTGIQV

Row | SMILES | KINOMEscan: EPHA7 (panel of 442 kinases [1]) | KINOMEscan: PRKCI (panel of 442 kinases [2]) | KINOMEscan: CDK2 (panel of 442 kinases [3])
1 | COc1cc(C(=O)N2CCC(N3CCN(C)CC3)CC2)ccc1Nc1ncc2c(n1)N(C)c1ccccc1C(=O)N2C [15 (LRRK2-IN-1)] | 97 | 100 | 100
2 | COc1cc(C(=O)N2CCC(N3CCN(C)CC3)CC2)ccc1Nc1ncc2c(n1)N1CCc3cccc(c31)C(=O)N2C [Compound 24] |  |  | 95
3 | COc1cc(C(=O)N2CCC(N3CCN(C)CC3)CC2)ccc1Nc1ncc2c(n1)N(C1CCCC1)c1ccccc1C(=O)N2C [Compound 25, 11-cyclopentyl-2-((2-methoxy-4-(4-(4-methylpiperazin-1-yl)piperidine-1-carbonyl)phenyl)amino)-5-methyl-5H-benzo[e]pyrimido[5,4-b][1,4]diazepin-6(11H)-one] | 99 | 100 | 96
4 | CCOc1cc(C(=O)N2CCC(N3CCN(C)CC3)CC2)ccc1Nc1ncc2c(n1)N(C1CCCC1)c1ccccc1C(=O)N2C [Compound 26] | 100 | 95 | 100
